Reference: patent publication US20100286155A1, “ADRENOCORTICAL CARCINOMA TREATMENT” (OSI PHARMACEUTICALS, INC., priority 2009, published 2010)

What was measured:
[1] = tested on: H295R ACC tumor cell line; test: H295R ACC tumor cell line OSI-906 sensitivity: proliferation (Cell Titer Glo) and apoptosis (Caspase Glo); type: cell-based, human; conditions: varying concentrations; proliferation at 72 h, apoptosis at 48 h after dosing
IGF-1R = target: T1, IGF-1R (Homo sapiens, UniProt P08069); test: pIGF-1R inhibition in H295R tumor cells, RTK capture array; type: cell-based; conditions: 3 uM, 24 hours
T1 construct: endogenous in cells; host or cells: H295R ACC tumor cell line
Method: (§1) Measurement of pIGF-1R and pIR was determined by RTK capture array (ARY001, R&D Systems), and measurement of pAkt was determined by WB.

pAkt = pAkt inhibition in H295R tumor cells, WB; type: cell-based, human; conditions: 3 uM, 24 hours
Method: as §1

[2] = tested on: adrenocortical carcinoma (ACC); test: Phase I clinical trials of OSI-906 in ACC patients (RECIST, CT, FDG-PET); type: in vivo, human
Method: As of 14 Apr. 2009 in two phase I clinical trials, seven patients have been enrolled with ACC.
Patient 1 is a ACC patient, previously treated with six cycles of etoposide, cisplatin, and doxorubicin and mitotane from Feb. 2008 to Jul. 2008. […] 1, 2008, 450 mg/day, escalating to 600 mg, on days 1-3 of each 14 day period. At 8 weeks of treatment, CT scan was reported as stable. […] The overall reduction in RECIST measurement of target lesions was 43%. Subsequent scans indicated incremental response, including a scan showing a partial response of 72% decrease by RECIST compared to baseline. […] ACC is typically thought to be an FDG-avid tumor.
Objective Response Criteria (RECIST)
Complete Response: Disappearance of all clinical and radiological evidence of tumor (both target and nontarget) including normalization of elevated tumor markers at baseline, if documented. The patient must be free of all tumor-related symptoms. Complete Response must be confirmed at a second tumor assessment not less than 28 days apart from the assessment at which CR was observed.
Partial Response: At least a 30% decrease in the sum of Longest Diameter (LD) of target lesions taking as reference the baseline sum LD. Partial Response must be confirmed at a second tumor assessment not less than 28 days apart from the assessment at which PR was observed.
Stable Disease: Steady state of disease. Neither sufficient shrinkage to qualify for PR nor sufficient increase to qualify for progressive disease. Stable disease must be documented to be present at least 28 days from the start of the therapy. There may be no appearance of new lesions for this category.
Progressive Disease: At least a 20% increase in the sum of LD of measured lesions taking as references the smallest sum LD recorded since the treatment started. Appearance of new lesions will also constitute progressive disease. In exceptional circumstances, unequivocal progression of nontarget lesions may be accepted as evidence of disease progression (DP).
All patients who have measurable disease according to RECIST, who received at least 2 treatment periods of therapy, and who have their disease re-evaluated will be evaluable for response. All sites of disease should be followed as either target or nontarget lesions, as categorized at baseline. All measurable lesions up to a maximum of 5 lesions per organ or 10 lesions in total, representative of all involved organs, should be identified as target lesions, while all other lesions (either additional measurable lesions or nonmeasurable lesions) should be classified as nontarget lesions. To ensure comparability, the baseline radiology/scans and subsequent radiology/scans to assess response should be performed using identical techniques (i.e., scans performed immediately following bolus contrast administration should be made with a standard volume of contrast, the identical contrast agent, and preferably the same scanner). The same method, radiological or physical, should be employed and assessed by the same individual on each occasion.

[3] = Patient 1, 450 mg/day escalating to 600 mg, days 1-3 of each 14 day period
[4] = seven ACC patients enrolled in two phase I trials, as of 14 Apr. 2009

T1 sequence (P08069 31-1367): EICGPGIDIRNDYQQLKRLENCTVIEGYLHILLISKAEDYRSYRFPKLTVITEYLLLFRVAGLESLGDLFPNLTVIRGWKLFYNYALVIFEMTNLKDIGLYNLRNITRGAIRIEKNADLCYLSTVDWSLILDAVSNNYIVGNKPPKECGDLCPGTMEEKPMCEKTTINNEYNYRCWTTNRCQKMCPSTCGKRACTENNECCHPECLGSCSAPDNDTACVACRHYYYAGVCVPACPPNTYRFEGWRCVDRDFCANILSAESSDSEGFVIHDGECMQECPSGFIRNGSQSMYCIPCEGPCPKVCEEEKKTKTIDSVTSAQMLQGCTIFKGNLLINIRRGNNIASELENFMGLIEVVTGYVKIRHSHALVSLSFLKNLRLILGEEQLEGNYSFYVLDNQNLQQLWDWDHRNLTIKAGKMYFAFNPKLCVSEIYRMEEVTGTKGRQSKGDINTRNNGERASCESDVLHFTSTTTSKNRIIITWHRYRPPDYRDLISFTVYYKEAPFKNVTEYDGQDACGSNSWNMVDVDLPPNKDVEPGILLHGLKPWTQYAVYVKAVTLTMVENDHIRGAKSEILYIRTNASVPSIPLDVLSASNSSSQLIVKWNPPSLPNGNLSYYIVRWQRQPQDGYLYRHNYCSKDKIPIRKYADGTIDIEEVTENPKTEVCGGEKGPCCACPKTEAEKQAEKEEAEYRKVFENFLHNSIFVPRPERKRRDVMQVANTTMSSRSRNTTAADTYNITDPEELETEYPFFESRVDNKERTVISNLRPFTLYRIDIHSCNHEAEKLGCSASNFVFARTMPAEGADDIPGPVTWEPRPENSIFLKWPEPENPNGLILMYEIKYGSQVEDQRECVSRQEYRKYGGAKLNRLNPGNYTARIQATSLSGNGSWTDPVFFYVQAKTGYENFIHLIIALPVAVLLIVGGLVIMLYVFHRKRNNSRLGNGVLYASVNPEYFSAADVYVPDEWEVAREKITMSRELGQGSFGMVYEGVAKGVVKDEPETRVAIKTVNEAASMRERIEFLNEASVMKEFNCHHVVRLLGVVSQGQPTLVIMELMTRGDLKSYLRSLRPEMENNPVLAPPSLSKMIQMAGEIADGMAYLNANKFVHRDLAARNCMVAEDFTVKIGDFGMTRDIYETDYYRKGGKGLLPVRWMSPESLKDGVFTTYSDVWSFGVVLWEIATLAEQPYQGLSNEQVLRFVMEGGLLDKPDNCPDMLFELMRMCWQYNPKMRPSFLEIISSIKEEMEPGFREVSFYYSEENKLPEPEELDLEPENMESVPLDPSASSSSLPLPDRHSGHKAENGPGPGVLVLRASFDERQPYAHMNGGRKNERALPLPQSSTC

C[C@]1(O)C[C@@H](c2nc(-c3ccc4ccc(-c5ccccc5)nc4c3)c3c(N)nccn32)C1 [OSI-906, cis-3-[8-amino-1-(2-phenyl-quinolin-7-yl)-imidazo[1,5-a]pyrazin-3-yl]-1-methyl-cyclobutanol]
sensitivity of H295R ACC tumor cell line (proliferation and apoptosis) [1]: exhibits sensitivity to OSI-906
inhibition of phosphorylation of IGF-1R (pIGF-1R) (IGF-1R): inhibits phosphorylation of both receptors
inhibition of pAkt (pAkt): inhibition of pAkt
CT scan result at 8 weeks of treatment [2, 3]: stable
CT scan result at 16 weeks [2, 3]: decrease in primary lesion as well as improvement in all pulmonary lesions
18-FDG-PET scan tumor uptake of tracer ([2]; Patient 1, 30 weeks into treatment, residual primary tumor and two remaining metastases): no tumor uptake of the tracer
overall reduction in RECIST measurement of target lesions ([2]; Patient 1, at 16 weeks): 43%
partial response, decrease by RECIST compared to baseline ([2]; Patient 1, subsequent scan): 72%
drug-related toxicities ([2]; Patient 1, up to 56 weeks): No drug-related toxicities have been observed
patients with partial response [2, 4]: One had partial response
patients with stable disease [2, 4]: two had stable disease for >6 months
patients with symptomatic response [2, 4]: one had a dramatic, short-lived sympitomatic response
